Reference: article PMC12647017, “Discovery and optimization of a synthetic small protein domain targeting antibodies” (Frontiers in Bioengineering and Biotechnology, 2025)

System: human polyclonal IgG
Assay: Screening ELISA of phage display clones (crude extracts) against human polyclonal IgG
Type: binding
Settings: crude extract of clones from 6th panning round, 1 µg/well human polyclonal IgG, blocked 3% (w/v) BSA in TBS, 50 µL extract 1 h at 37 °C, Anti-HA tag-HRP, ABTS, Abs405nm
Method: The biopanning of the previously developed WWp5_4 library ([Dias et al., 2025]) (Figures 1A,B) against human polyclonal IgG was performed for six rounds, after which an enrichment of ligands was observed (Supplementary Table S3). To assess the binding of each clone to the target, 192 clones were selected and expressed at small scale in 96-deep well blocks, following conditions previously optimised. After cell lysis, the supernatant containing the soluble fraction was used for ELISA assays. The results in Figure 1C illustrate the difference in the absorbance profile of the screened ligands. […] From these 26, only 21 presented high quality for reliable sequencing results. The sequence alignment and diversity of the different binders is represented in Table 1 and Figure 2A.
Small Scale Protein Expression and screening ELISA: From the output of the 6th round of panning, 94 isolated colonies were peaked into two sterile 96-well deep well 2mL round-bottom plates and grown with 200 µL of LB with ampicillin, 125 rpm, 37 °C, overnight (master plates). The following day, to one of the master plates was added glycerol to achieve a final concentration of 15% and was stored at -80 °C. Regarding the other master plate, 12 µL of this culture was added to another sterile 96-well deep well 2 mL round-bottom plate with 1.2 mL of LB with ampicillin and was grown at 37 °C, 125 rpm until OD600nm achieved 0.5-0.6. After this, protein expression was induced with 1 mM IPTG and continued incubation with the previous conditions. The following day, the cultures were sonicated for 30 minutes in ice-water bath and centrifuged for 10 minutes at 2500 x g. The supernatant was collected and transferred to a new microplate to be used in the screening for the ELISA (crude extract). For the ELISA, three microplates were tested: A) Sample binding plate; B) Negative control plate; C) Expression plate. On the sample binding plate, 1 µg/well of human polyclonal IgG was immobilized on the plate at 4 °C, overnight. On the following day, the target was removed, and the wells were washed once with TBS, then the plate was blocked with 300 µL 3% (w/v) BSA in TBS for 1 hour at 37 °C. After this, the wells were washed once with TBS, and were then incubated with 50 µL of crude extract (containing WW domain) for 1 hour at 37 °C. The plate was then washed 5 times with TBS-T, and then incubated with 100 µL of the Anti-HA tag-HRP conjugated antibody (diluted 1:1000) for 1 hour at 37 °C. The plate was then washed once with TBS-T and 4 times with TBS, and then incubated with the substrate ABTS for 1 hour at the dark at 37 °C. The results were then analysed in a microplate reader (TECAN) and the Abs405nm was then measured.
For the Negative control plate the protocol was the same as for the Binding microplate, except for the target immobilization. Instead of having IgG, only coating buffer was added. This plate allows to detect clones that unspecific bind to BSA present in the Blocking Buffer. For the Expression plate the protocol started at the step of incubation with the crude extract, and from there the steps were the same as the Binding microplate. This plate allows to detect clone’s basal expression level.

Sequence: SMGLPPGWDEYKT RRFKL GKTYYYNH HILS KTSTWTDPRMSS [Clone E6]
- ELISA signal: High (high binders (Abs>0.4))
